Measured values: paper PMC6017286, “VSP-17, a New PPARγ Agonist, Suppresses the Metastasis of Triple-Negative Breast Cancer via Upregulating the Expression of E-Cadherin” (Molecules : A Journal of Synthetic Chemistry and Natural …, 2018)

Target: T1, PPARγ (Homo sapiens, UniProt P37231)
T1 construct: gene PPARG; GST-fused human PPARγ-LBD
T1 sequence (P37231 231-505 limits assumed): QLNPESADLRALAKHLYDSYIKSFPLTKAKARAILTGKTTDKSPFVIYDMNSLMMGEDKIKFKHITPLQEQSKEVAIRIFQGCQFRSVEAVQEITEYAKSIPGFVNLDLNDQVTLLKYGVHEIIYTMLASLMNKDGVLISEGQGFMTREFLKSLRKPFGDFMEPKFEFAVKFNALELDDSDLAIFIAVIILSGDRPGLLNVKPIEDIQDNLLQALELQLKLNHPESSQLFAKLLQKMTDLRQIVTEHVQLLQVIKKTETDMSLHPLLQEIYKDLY
Assay: LanthaScreen TR-FRET competitive binding assay (displacement of fluorescent PPAR ligand)

Compound `O=C(NCc1ccncc1)c1ccc2c(ccn2Cc2ccc(C(F)(F)F)cc2)c1` [VSP-17] has a Ki of 270 nM.
